Data on 44 compounds can be found in US12428415B2, “Matriptase 2 inhibitors and uses thereof” (Disc Medicine, Inc., priority 2018, dated 2025).

For the test, the target named is T1, Human Recombinant Matriptase 2 (Homo sapiens, UniProt Q8IU80).
T1 construct: purchased Enzo Life Sciences (an in-house preparation was also used) ALX-201-752-1
T1 sequence (Q8IU80 1-811): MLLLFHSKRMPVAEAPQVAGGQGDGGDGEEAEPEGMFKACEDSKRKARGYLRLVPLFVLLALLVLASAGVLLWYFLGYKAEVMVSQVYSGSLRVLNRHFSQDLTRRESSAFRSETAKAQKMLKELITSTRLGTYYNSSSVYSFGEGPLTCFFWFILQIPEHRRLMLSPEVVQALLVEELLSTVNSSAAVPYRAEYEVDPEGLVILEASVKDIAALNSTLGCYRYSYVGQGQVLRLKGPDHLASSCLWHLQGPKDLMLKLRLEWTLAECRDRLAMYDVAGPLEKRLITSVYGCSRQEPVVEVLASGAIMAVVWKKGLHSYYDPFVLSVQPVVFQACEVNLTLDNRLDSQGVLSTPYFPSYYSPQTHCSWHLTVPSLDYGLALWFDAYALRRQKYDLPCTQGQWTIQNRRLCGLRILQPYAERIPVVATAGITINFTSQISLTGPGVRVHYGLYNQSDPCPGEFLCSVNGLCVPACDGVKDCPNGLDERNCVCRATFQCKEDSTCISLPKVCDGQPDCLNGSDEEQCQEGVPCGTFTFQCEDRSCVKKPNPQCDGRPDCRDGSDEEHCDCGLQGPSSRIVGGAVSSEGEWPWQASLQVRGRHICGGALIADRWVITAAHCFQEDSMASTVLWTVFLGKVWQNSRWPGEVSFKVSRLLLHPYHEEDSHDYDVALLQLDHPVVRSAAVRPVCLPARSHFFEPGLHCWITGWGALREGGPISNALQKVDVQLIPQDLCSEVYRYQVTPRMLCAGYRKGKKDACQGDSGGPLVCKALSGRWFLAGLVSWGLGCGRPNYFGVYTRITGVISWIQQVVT
Briefly: Matriptase 2 fluorescence based inhibition assay, Method A (100 mM TRIS pH 9, 1 mg/mL BSA). It is filed as biochemical. The note with it: at 1 uM; Assay Used = A; read-out: Mar-2 % inhibition at 1 uM. The method in brief: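 At 25° C in 100 mM TRIS pH 9 with 1 mg/mL BSA and 1% DMSO, compounds were preincubated 30 min with 7 nM commercial or 15 nM in-house protein before adding 100 μM Boc-Gln-Ala-Arg-7-amido-4-methyl coumarin. Fluorescence at 360/480 nm after 60 min; single points at 1 and 10 μM, IC50 by variable-slope nonlinear regression.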

The inhibition is the share of the control response that was lost under treatment. For `CC(C)c1ccc(Cn2c(C(=O)N3CCC(CF)CC3)cc3ccc(C(=N)N)cc32)cc1` [Compound I-297], the inhibition at 1 µM lay within 0 to 25%.
Then `CC(C)(C)c1ccc(Cn2c(C(=O)N3CC[C@H](F)C3)cc3ccc(C(=N)N)cc32)cc1` [Compound I-298], with 25 to 50%; and `N=C(N)c1ccc2cc(C(=O)N3CCC(CCN)CC3)n(CCc3ccccc3)c2c1` [Compound I-299], with 25 to 50%.
Then `N=C(N)c1ccc2cc(C(=O)N3CC[C@@H](N)C3)n(CCc3ccccc3)c2c1` [Compound I-300], with 25 to 50%; and `N=C(N)c1ccc2cc(C(=O)N3CCC(CCN)CC3)n(CCc3ccc(F)cc3)c2c1` [Compound I-301], with 25 to 50%.
In the case of `COc1ccc(CCn2c(C(=O)N3CCC(CCN)CC3)cc3ccc(C(=N)N)cc32)cc1` [Compound I-302] it was 25 to 50%.
Consider `N=C(N)c1ccc2cc(C(=O)N3CCC(F)(F)CC3)n(Cc3ccc(-c4ccccc4)cc3)c2c1` [Compound I-306], for which the inhibition at 1 µM fell in the range of 0 to 25%.
In the case of `N=C(N)c1ccc2cc(C(=O)N3CCCC(F)(F)C3)n(Cc3ccc(-c4ccccc4)cc3)c2c1` [Compound I-307] it was 0 to 25%.
In the case of `N=C(N)c1ccc2cc(C(=O)N3CCC(CF)CC3)n(Cc3ccc(-c4ccccc4)cc3)c2c1` [Compound I-308] it was 0 to 25%; in that of `N=C(N)c1ccc2cc(C(=O)N3CC[C@H](F)C3)n(Cc3ccc(-c4ccccc4)cc3)c2c1` [Compound I-309], 0 to 25%.
Take `N=C(N)c1ccc2cc(C(=O)N3CCC(F)(F)C3)n(Cc3ccc(-c4ccccc4)cc3)c2c1` [Compound I-310]: the inhibition at 1 µM lay in the range of 0 to 25%.
In the case of `N=C(N)c1ccc2cc(C(=O)N3CCc4ccccc4C3)n(Cc3ccc(-c4ccccc4)cc3)c2c1` [Compound I-311] it was 0 to 25%; in that of `N=C(N)c1ccc2cc(C(=O)N3CC[C@@H](F)C3)n(Cc3ccc(Oc4ccccc4)cc3)c2c1` [Compound I-313], 0 to 25%; in that of `N=C(N)c1ccc2cc(C(=O)N3CCC(F)(F)C3)n(Cc3ccc(Oc4ccccc4)cc3)c2c1` [Compound I-314], 0 to 25%.
With `N=C(N)c1ccc2cc(C(=O)N3CCCC(F)(F)C3)n(Cc3ccc(Oc4ccccc4)cc3)c2c1` [Compound I-315], the inhibition at 1 µM lay in the range of 0 to 25%.
In the case of `N=C(N)c1ccc2cc(C(=O)N3CCC(CCN)CC3)n(Cc3ccc(Oc4ccc(F)cc4)cc3)c2c1` [Compound I-316] it was 0 to 25%; in that of `N=C(N)c1ccc2cc(C(=O)N3CCC(CCN)CC3)n(Cc3ccc(Oc4ccc(F)cc4)nc3)c2c1` [Compound I-317], 25 to 50%; in that of `N=C(N)c1ccc2cc(C(=O)N3CCC(CCN)CC3)n(Cc3ccc(Oc4cccc(C(F)(F)F)c4)cc3)c2c1` [Compound I-319], 25 to 50%.
In the case of `N=C(N)c1ccc2cc(C(=O)N3CCC(CCN)CC3)n(Cc3cccc(Oc4ccccc4)c3)c2c1` [Compound I-321] it was 25 to 50%; in that of `N=C(N)c1ccc2cc(C(=O)N3CCC(CCCC(N)=O)CC3)n(Cc3ccc(C(F)(F)F)cc3)c2c1` [Compound I-322], 0 to 25%.
As for `N=C(N)c1ccc2cc(C(=O)N3CCC(F)C3)n(Cc3cccc(C(N)=O)c3)c2c1` (centres unmarked) [Compound I-323, 3-((6-Carbamimidoyl-2-(3-fluoropyrrolidine-1-carbonyl)-1H-indol-1-yl)methyl)benzamide], the inhibition at 1 µM lay in the range of 0 to 25%.
In the case of `N=C(N)c1ccc2cc(C(=O)N3CCC(F)(F)C3)n(Cc3cccc(C(N)=O)c3)c2c1` [Compound I-324] it was 0 to 25%.
As for `N=C(N)c1ccc2cc(C(=O)N3CCC[C@@H](CF)C3)n(Cc3cccc(C(N)=O)c3)c2c1` [Compound I-325], the inhibition at 1 µM lay within 0 to 25%.
In the case of `N=C(N)c1ccc2cc(C(=O)N3CCC(F)CC3)n(Cc3ccc(C(N)=O)cc3)c2c1` [Compound I-326] it was 0 to 25%.
`N=C(N)c1ccc2cc(C(=O)N3CCC(F)(F)CC3)n(Cc3ccc(C(N)=O)cc3)c2c1` [Compound I-327]: the inhibition at 1 µM is 0 to 25%.
In the case of `N=C(N)c1ccc2cc(C(=O)N3CCCC(F)(F)C3)n(Cc3ccc(C(N)=O)cc3)c2c1` [Compound I-328] it was 0 to 25%.
Consider `N=C(N)c1ccc2cc(C(=O)N3CCC(C(F)(F)F)CC3)n(Cc3ccc(C(N)=O)cc3)c2c1` [Compound I-329], for which the inhibition at 1 µM lay within 0 to 25%.
In the case of `N=C(N)c1ccc2cc(C(=O)N3CC[C@H](F)C3)n(Cc3ccc(C(N)=O)cc3)c2c1` [Compound I-330] it was 0 to 25%.
For the compound `N=C(N)c1ccc2cc(C(=O)N3CCC(F)(F)C3)n(Cc3ccc(C(N)=O)cc3)c2c1` [Compound I-331], the inhibition at 1 µM was in the range of 0 to 25%.
In the case of `N=C(N)c1ccc2cc(C(=O)N3CCC[C@H](CF)C3)n(Cc3ccc(C(N)=O)cc3)c2c1` [Compound I-332] it was 0 to 25%; in that of `N=C(N)c1ccc2cc(C(=O)N3CC[C@@H](N4CCOCC4)C3)n(Cc3ccc(C(N)=O)cc3)c2c1` [Compound I-333], 0 to 25%; in that of `N=C(N)c1ccc2cc(C(=O)N3CCC(CCN)CC3)n(S(=O)(=O)c3ccc4ccccc4c3)c2c1` [Compound I-335], 0 to 25%.
`N=C(N)c1ccc2cc(C(=O)N3CCC(CCN)CC3)n(S(=O)(=O)Cc3ccccc3)c2c1` [Compound I-336]: the inhibition at 1 µM was in the range of 0 to 25%.
`N=C(N)c1ccc2cc(C(=O)N3CCC(CCN)CC3)n(CCS(=O)(=O)c3ccccc3)c2c1` [Compound I-337]: the inhibition at 1 µM fell in the range of 0 to 25%.
Consider `N=C(N)c1ccc2cc(C(=O)N3CCCC4CCCCC43)n(CCS(=O)(=O)c3ccccc3)c2c1` (centres unmarked) [Compound I-338], for which the inhibition at 1 µM is 0 to 25%.
`N=C(N)c1ccc2cc(C(=O)N3CCC4CCCCC4C3)n(CCS(=O)(=O)c3ccccc3)c2c1` (centres unmarked) [Compound I-339]: the inhibition at 1 µM fell in the range of 0 to 25%.
On to `CC1CCN(C(=O)c2cc3ccc(C(=N)N)cc3n2CCS(=O)(=O)c2ccccc2)CC1` [Compound I-340], for which the inhibition at 1 µM lay in the range of 0 to 25%.
Then `N=C(N)c1ccc2cc(C(=O)N3CC[C@@H](F)C3)n(CCS(=O)(=O)c3ccccc3)c2c1` [Compound I-341], with 0 to 25%; and `N=C(N)c1ccc2cc(C(=O)N3CCC(F)(F)C3)n(CCS(=O)(=O)c3ccccc3)c2c1` [Compound I-342], with 0 to 25%; and `N=C(N)c1ccc2cc(C(=O)N3CCC(F)CC3)n(CCS(=O)(=O)c3ccccc3)c2c1` [Compound I-343], with 0 to 25%.
Then `N=C(N)c1ccc2cc(C(=O)N3CCC(F)(F)CC3)n(CCS(=O)(=O)c3ccccc3)c2c1` [Compound I-344], with 0 to 25%.
Then `CC(C)CCn1c(C(=O)N2CCC(CCN)CC2)c(N)c2ccc(C(=N)N)cc21` [Compound I-345, 3-Amino-2-(4-(2-aminoethyl)piperidine-1-carbonyl)-1-isopentyl-1H-indole-6-carboximidamide], with 25 to 50%.
For the compound `CCOC(=O)c1ccc(Cn2c(C(=O)N3CCC(CCN)CC3)c(N)c3ccc(C(=N)N)cc32)cc1` [Compound I-346], the inhibition at 1 µM lay in the range of 0 to 25%.
For `N=C(N)c1ccc2c(N)c(C(=O)N3CCC(CCNC(=O)O)CC3)n(Cc3ccc(Oc4ccccc4)cc3)c2c1` [Compound I-347], the inhibition at 1 µM lay within 0 to 25%.
